In US20260306440A1, “USE OF SMALL MOLECULES TO INCREASE HYPOXIA INDUCIBLE FACTOR (HIF) ACTIVITY” (BROWN UNIVERSITY, priority 2023, published 2026):

Experiments:
[1] = system: HIF-1α; experiment: Expression of HIF-1α protein in cancer cell lines treated with compound (FIGS. 1-4, 29, 30, 32); format: cell-based
Excerpt: (§1) Hypoxic conditions (0.5% O2) were achieved by culturing cells in a hypoxia chamber (HypOxygen H35 HypOxystation) which controls and maintains a stable level of oxygen, carbon dioxide, temperature and humidity.
(§2) Normoxia refers to a regular cell culture condition at 21% oxygen concentration.

[2] = system: VEGF; experiment: Expression of VEGF protein in SW480 cells treated with compound (FIG. 4); format: cell-based; conditions: normoxia 6 h (FIG. 4)
Excerpt: as §2

[3] = system: VEGF; experiment: Luciferase reporter assay, VEGF-HRE::dLUC (HCT116 or SW480 stable cell lines); format: cell-based, human
Procedure: (§3) HCT116 or SW480 cells were transfected using lipofectamine 2000 (Invitrogen, USA) with pGL4.22-VEGF-HRE::dLUC or pGL4.22-PGK1-HRE::dLUC plasmids expressing the luciferase reporter with hypoxia response element (HRE) derived from the human PGK1 promoter or the human VEGF promoter (Walton Z. E. et al., Cell. 2018 Jun. 28; 174(1):72-87). Cells were cultured and selected in 2 μg/mL (for HCT116) or 4 μg/mL (for SW480) puromycin-containing DMEM medium (Cytiva HyClone) after 24 h of transfection. Individual clones were picked and expanded. Verification of the luciferase reporter-bearing cells were performed by measuring the bioluminescence in hypoxia upon addition of the substrate (luciferin) using the IVIS imaging system.
(§4) Luciferase-reporter expressing cells were seeded in 96-well black plates at a density of 2~4×10^4 cells/well. Treatment with compounds were performed on the next day for 6 h under normoxia or hypoxia. After substrate (luciferin) addition, plates were imaged for luminescence intensity in the IVIS imaging system.
as §1, §2

[4] = system: PGK1; experiment: Luciferase reporter assay, PGK1-HRE::dLUC (HCT116 or SW480 stable cell lines); format: cell-based, human; conditions: HCT116 and SW480, normoxia and hypoxia, 6 h (FIGS. 5-24)
Procedure: as §3, §4, §1, §2

[5] = system: erythropoietin (EPO) mRNA; experiment: EPO mRNA expression in HCT116 cells by real-time PCR; format: cell-based; conditions: HCT116, normoxia or hypoxia, indicated durations (FIG. 31)
Procedure: Total RNA was extracted from cells using the RNeasy Mini Kit (Qiagen). cDNA was obtained by reverse transcription with random primers using the SuperScript II First-Strand Synthesis System (Invitrogen). Real-time PCR reactions were performed with SYBR Green Master Mix (Applied Biosystems) using the QuantStudio™ 6 Pro Real-Time PCR System.
as §1, §2
Cells were treated for indicated durations in normoxia or hypoxia. Extracted RNA was analyzed by real-time PCR. M: MG132 (5 μM). Statistic analysis: two-way anova+Dunnett's multiple comparisons test.

[6] = hypoxia (0.5% O2), FIG. 2: SW480 cells, 6 h
[7] = normoxia (21% O2), FIGS. 1, 3, 4: SW480, RCC4 cells, 6 h

| Structure (SMILES) | HIF-1α expression ([1]; HCT116, normoxia, 6, 8 or 10 hours (FIG. 29)) | expression of HIF-1α ([1]; HT29 (colorectal cancer) cells, normoxia 6 h (FIG. 30)) | expression of HIF-1α ([1]; PANC1 (pancreatic cancer) cells, normoxia 6 h (FIG. 30)) | expression of HIF-1α [1, 6] | expression of HIF-1α [1, 7] | VEGF expression [2] | VEGF upregulation as measured by a luciferase assay, despite incubation with siRNA EIF4E ([3]; HCT116, hypoxia 6 h, two different eIF4E siRNAs for 48 hours (FIG. 26)) | VEGF upregulation as measured by a luciferase assay, despite incubation with siRNA EIF4E ([3]; HCT116, normoxia 6 h, two different eIF4E siRNAs for 48 hours (FIG. 25)) | expression of VEGF as measured in a luciferase assay ([3]; HCT116 and SW480, normoxia and hypoxia, 6 h (FIGS. 5-24)) | VEGF upregulation as measured by a luciferase assay, despite incubation with siRNA EIF4E ([3]; SW480, hypoxia 6 h, two different eIF4E siRNAs for 48 hours (FIG. 28)) | VEGF upregulation as measured by a luciferase assay, despite incubation with siRNA EIF4E ([3]; SW480, normoxia 6 h, two different eIF4E siRNAs for 48 hours (FIG. 27)) | expression of PGK1 as measured in a luciferase assay [4] | erythropoietin (EPO) mRNA expression [5] | HIF-1α expression ([1]; HCT116, hypoxia (FIG. 32)) | HIF-1α expression ([1]; RCC4 renal cell carcinoma cells, normoxia (FIG. 32)) | HIF-1α expression ([1]; SW480, hypoxia (FIG. 32)) | HIF-1α expression ([1]; SW480, normoxia (FIG. 32)) |
| --- | --- | --- | --- | --- | --- | --- | --- | --- | --- | --- | --- | --- | --- | --- | --- | --- | --- |
| O=C(O)c1ccc(N2C(=O)C(=Cc3ccc(-c4ccc([N+](=O)[O-])cc4)o3)C=C2c2ccccc2)cc1 [4E1Rcat] | increases | increases | increases | increase | increase | increase | upregulated | upregulated | increases | upregulated | upregulated | increases | increases |  |  |  |  |
| CC1=NN(c2ccc(C(=O)O)cc2)C(=O)/C1=C/c1ccc(-c2cc(C)c(C)cc2[N+](=O)[O-])o1 [C 646] |  |  |  | increase | increase | increase |  |  |  |  |  |  |  |  |  |  |  |
| CCc1ccc(/C=C/C(=O)Nc2ccc(C(C)=O)cc2)o1 [Heclin] |  |  |  | increase | increase | increase |  |  |  |  |  |  |  |  |  |  |  |
| CCOC(=O)c1ccc(N2NC(=O)/C(=C/c3ccc([N+](=O)[O-])o3)C2=O)cc1 [PYR 41] |  |  |  | increase | increase | increase |  |  |  |  |  |  |  | increases | increases | increases | increases |
